According to patent publication US20080021026A1, “BENZOTHIOPHENE INHIBITORS OF RHO KINASE” (priority 2006, published 2008):
Read-outs that look alike come from different tables or passages of the source.

Columns and labels:
[1] = biological target: T1, recombinant N-terminal GST-tagged human Rho kinase 1 (ROCK1, amino acids 1-535) (Homo sapiens, UniProt Q13464); assay: In vitro Rho kinase assay (luciferase-based ATP consumption), ROCK1; assay type: biochemical
T1 construct: ROCK1, amino acids 1-535; purchased Invitrogen Inc. PV-3691
Procedure, shortened: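 ATP depletion measured by firefly luciferase luminescence after 2 h at 30 °C, with inhibition raising signal and activity expressed relative to H-1152P. Reaction: 0.82 μg/ml recombinant GST-tagged ROCK1 (aa 1-535), S6 peptide 100 μg/ml, […], pH 7.5 Tris buffer.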

[2] = biological target: T2, recombinant N-terminal GST-tagged human Rho kinase 2 (ROCK2, amino acids 1-552) (Homo sapiens, UniProt O75116); assay: In vitro Rho kinase assay (luciferase-based ATP consumption), ROCK2; assay type: biochemical
T2 construct: ROCK2, amino acids 1-552; purchased Invitrogen Inc. PV3759
Procedure, shortened: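 Luciferase-based luminescence of leftover ATP after 2 h at 30 °C, where inhibition raises signal, reports activity of GST-tagged ROCK2 (aa 1-552) at 0.82 μg/ml. Conditions: S6 peptide 100 μg/ml, […], pH 7.5 Tris buffer. Results given as percent of H-1152P control activity.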

[3] = recombinant GST-tagged human ROCK1, luciferase-based ATP consumption, read-out: ROCK1 IC50
[4] = recombinant GST-tagged human ROCK2, luciferase-based ATP consumption, read-out: ROCK2 IC50
[5] = ROCK1 IC50, recombinant GST-tagged human ROCK1, luciferase-based ATP consumption
[6] = ROCK2 IC50, recombinant GST-tagged human ROCK2, luciferase-based ATP consumption

T2 sequence (O75116 1-552): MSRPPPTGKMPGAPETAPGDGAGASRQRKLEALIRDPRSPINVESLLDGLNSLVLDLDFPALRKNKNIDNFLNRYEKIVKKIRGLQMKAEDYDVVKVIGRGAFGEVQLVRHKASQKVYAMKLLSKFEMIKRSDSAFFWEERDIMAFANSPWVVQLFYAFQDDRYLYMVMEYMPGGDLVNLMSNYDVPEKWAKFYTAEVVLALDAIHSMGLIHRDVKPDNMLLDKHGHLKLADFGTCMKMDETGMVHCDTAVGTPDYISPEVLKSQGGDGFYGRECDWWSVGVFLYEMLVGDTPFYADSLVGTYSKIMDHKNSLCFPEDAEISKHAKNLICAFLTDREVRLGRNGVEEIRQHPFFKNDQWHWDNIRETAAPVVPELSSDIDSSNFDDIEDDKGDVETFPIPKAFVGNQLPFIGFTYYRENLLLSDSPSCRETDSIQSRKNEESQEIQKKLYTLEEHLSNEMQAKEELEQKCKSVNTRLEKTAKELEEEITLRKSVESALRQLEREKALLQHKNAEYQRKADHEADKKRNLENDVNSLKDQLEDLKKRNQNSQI
T1 sequence (Q13464 1-535): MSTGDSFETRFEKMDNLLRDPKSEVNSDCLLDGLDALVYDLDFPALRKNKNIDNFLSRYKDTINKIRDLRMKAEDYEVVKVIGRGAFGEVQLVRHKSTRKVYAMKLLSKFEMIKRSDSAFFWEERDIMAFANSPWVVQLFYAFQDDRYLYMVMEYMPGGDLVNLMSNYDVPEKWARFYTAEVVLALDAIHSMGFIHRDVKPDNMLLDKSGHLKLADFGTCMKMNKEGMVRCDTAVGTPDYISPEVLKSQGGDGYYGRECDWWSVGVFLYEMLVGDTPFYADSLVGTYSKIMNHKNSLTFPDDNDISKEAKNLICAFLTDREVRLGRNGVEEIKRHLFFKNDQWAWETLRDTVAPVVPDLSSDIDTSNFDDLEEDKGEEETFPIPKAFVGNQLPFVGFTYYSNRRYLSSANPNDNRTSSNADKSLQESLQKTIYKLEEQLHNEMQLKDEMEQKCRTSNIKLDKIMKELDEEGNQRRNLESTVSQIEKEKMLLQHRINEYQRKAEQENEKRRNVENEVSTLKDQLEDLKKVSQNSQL

IC50 [1, 3] [µM]	IC50 [2, 4] [µM]	SMILES	IC50 [1, 5] [µM]	IC50 [2, 6] [µM]
> 5	< 5	Cc1c(-c2ccnc(N)n2)sc2ccc(CNC(=O)c3ccc(Cl)nc3)cc12 [Example 148, Cc1c(sc2ccc(CNC(═O)c3ccc(Cl)nc3)cc12)-c4ccnc(N)n4]	–	–
–	–	Cc1c(-c2ccnc(N)n2)sc2ccc(CNC(=O)c3cccnc3Cl)cc12 [Example 149, Cc1c(sc2ccc(CNC(═O)c3cccnc3Cl)cc12)-c4ccnc(N)n4]	> 5	< 5
< 5	< 5	Cc1c(-c2ccnc(N)n2)sc2ccc(CNC(=O)c3ccnc(Cl)c3)cc12 [Example 150, Cc1c(sc2ccc(CNC(═O)c3ccnc(Cl)c3)cc12)-c4ccnc(N)n4]	–	–
< 5	< 5	Cc1c(-c2ccnc(N)n2)sc2ccc(CNC(=O)c3cc(Cl)ccn3)cc12 [Example 151, Cc1c(sc2ccc(CNC(═O)c3cc(Cl)ccn3)cc12)-c4ccnc(N)n4]	–	–
–	–	Cc1c(-c2ccnc(N)n2)sc2ccc(CNC(=O)c3ccncc3Cl)cc12 [Example 152, Cc1c(sc2ccc(CNC(═O)c3ccncc3Cl)cc12)-c4ccnc(N)n4]	< 5	< 5
< 5	< 5	Cc1c(-c2ccnc(N)n2)sc2ccc(CNC(=O)c3c(F)cccc3F)cc12 [Example 153, Cc1c(sc2ccc(CNC(═O)c3c(F)cccc3F)cc12)-c4ccnc(N)n4]	–	–
> 5	< 5	Cc1c(-c2ccnc(N)n2)sc2ccc(CNC(=O)c3cccc(F)c3F)cc12 [Example 154, Cc1c(sc2ccc(CNC(═O)c3cccc(F)c3F)cc12)-c4ccnc(N)n4]	–	–
> 5	< 5	Cc1c(-c2ccnc(N)n2)sc2ccc(CNC(=O)c3ccc(F)cc3F)cc12 [Example 155, Cc1c(sc2ccc(CNC(═O)c3ccc(F)cc3F)cc12)-c4ccnc(N)n4]	–	–
< 5	< 5	Cc1c(-c2ccnc(N)n2)sc2ccc(CNC(=O)c3cc(F)cc(F)c3)cc12 [Example 156, Cc1c(sc2ccc(CNC(═O)c3cc(F)cc(F)c3)cc12)-c4ccnc(N)n4]	–	–
> 5	< 5	Cc1c(-c2ccnc(N)n2)sc2ccc(CNC(=O)c3ccc(F)c(F)c3)cc12 [Example 157, Cc1c(sc2ccc(CNC(═O)c3ccc(F)c(F)c3)cc12)-c4ccnc(N)n4]	–	–
> 5	> 5	Cc1c(-c2ccnc(N)n2)sc2ccc(CNC(=O)CC(C)CC(C)(C)C)cc12 (stereo not shown) [Example 158, CC(CC(═O)NCc1ccc2sc(c(C)c2c1)-c3ccnc(N)n3)CC(C)(C)C]	–	–
< 5	< 5	Cc1c(-c2ccnc(N)n2)sc2ccc(CNC(=O)C3CCc4ccccc43)cc12 (stereo not shown) [Example 159, Cc1c(sc2ccc(CNC(═O)C3CCc4ccccc34)cc12)-c5ccnc(N)n5]	–	–
< 5	< 5	Cc1c(-c2ccnc(N)n2)sc2ccc(CNC(=O)C(Cl)(Cl)Cl)cc12 [Example 160, Cc1c(sc2ccc(CNC(═O)C(Cl)(Cl)Cl)cc12)-c3ccnc(N)n3]	–	–
< 5	< 5	Cc1c(-c2ccnc(N)n2)sc2ccc(CNC(=O)C=Cc3ccccc3O)cc12 [Example 161, Cc1c(sc2ccc(CNC(═O)C═Cc3ccccc3O)cc12)-c4ccnc(N)n4]	–	–
< 5	< 5	Cc1c(-c2ccnc(N)n2)sc2ccc(CNC(=O)C=Cc3cccc(O)c3)cc12 [Example 163, Cc1c(sc2ccc(CNC(═O)C═Cc3cccc(O)c3)cc12)-c4ccnc(N)n4]	–	–
> 5	< 5	CC(=O)c1cccc(C(=O)NCc2ccc3sc(-c4ccnc(N)n4)c(C)c3c2)c1 [Example 164, CC(═O)c1cccc(c1)C(═O)NCc2ccc3sc(c(C)c3c2)-c4ccnc(N)n4]	–	–
> 5	< 5	CC(=O)c1ccccc1C(=O)NCc1ccc2sc(-c3ccnc(N)n3)c(C)c2c1 [Example 165, CC(═O)c1ccccc1C(═O)NCc2ccc3sc(c(C)c3c2)-c4ccnc(N)n4]	–	–
> 5	< 5	Cc1ccccc1CCC(=O)NCc1ccc2sc(-c3ccnc(N)n3)c(C)c2c1 [Example 167, Cc1ccccc1CCC(═O)NCc2ccc3sc(c(C)c3c2)-c4ccnc(N)n4]	–	–
< 5	< 5	Cc1cccc(CCC(=O)NCc2ccc3sc(-c4ccnc(N)n4)c(C)c3c2)c1 [Example 168, Cc1cccc(CCC(═O)NCc2ccc3sc(c(C)c3c2)-c4ccnc(N)n4)c1]	–	–

IC50 [1, 3] [µM]	IC50 [2, 4] [µM]	SMILES	IC50 [1, 5] [µM]	IC50 [2, 6] [µM]
< 5	< 5	CCC(C(=O)NCc1ccc2sc(-c3ccnc(N)n3)c(C)c2c1)c1ccccc1 (stereo not shown) [Example 169, CCC(C(═O)NCc1ccc2sc(c(C)c2c1)-c3ccnc(N)n3)c4ccccc4]	–	–
> 5	< 5	Cc1cc(C)c(C(=O)NCc2ccc3sc(-c4ccnc(N)n4)c(C)c3c2)c(C)c1 [Example 170, Cc1cc(C)c(c(C)c1)C(═O)NCc2ccc3sc(c(C)c3c2)-c4ccnc(N)n4]	–	–
< 5	< 5	Cc1c(-c2ccnc(N)n2)sc2ccc(CNC(=O)c3ccc4c(c3)OCO4)cc12 [Example 172, Cc1c(sc2ccc(CNC(═O)c3ccc4OCOc4c3)cc12)-c5ccnc(N)n5]	–	–
> 5	< 5	Cc1c(-c2ccnc(N)n2)sc2ccc(CNC(=O)C=Cc3ccccc3F)cc12 [Example 173, Cc1c(sc2ccc(CNC(═O)C═Cc3ccccc3F)cc12)-c4ccnc(N)n4]	–	–
> 5	> 5	CCOc1ccccc1C(=O)NCc1ccc2sc(-c3ccnc(N)n3)c(C)c2c1 [Example 174, CCOc1ccccc1C(═O)NCc2ccc3sc(c(C)c3c2)-c4ccnc(N)n4]	–	–
> 5	< 5	Cc1ccccc1OCC(=O)NCc1ccc2sc(-c3ccnc(N)n3)c(C)c2c1 [Example 175, Cc1ccccc1OCC(═O)NCc2ccc3sc(c(C)c3c2)-c4ccnc(N)n4]	–	–
> 5	< 5	Cc1c(-c2ccnc(N)n2)sc2ccc(CNC(=O)CCc3ccccc3O)cc12 [Example 176, Cc1c(sc2ccc(CNC(═O)CCc3ccccc3O)cc12)-c4ccnc(N)n4]	–	–
> 5	< 5	COc1ccccc1CC(=O)NCc1ccc2sc(-c3ccnc(N)n3)c(C)c2c1 [Example 177, COc1ccccc1CC(═O)NCc2ccc3sc(c(C)c3c2)-c4ccnc(N)n4]	–	–
< 5	< 5	Cc1c(-c2ccnc(N)n2)sc2ccc(CNC(=O)C(C)c3ccc(O)cc3)cc12 (stereo not shown) [Example 178, CC(C(═O)NCc1ccc2sc(c(C)c2c1)-c3ccnc(N)n3)c4ccc(O)cc4]	–	–
> 5	< 5	Cc1c(-c2ccnc(N)n2)sc2ccc(CNC(=O)c3ccccc3[N+](=O)[O-])cc12 [Example 179, Cc1c(sc2ccc(CNC(═O)c3ccccc3[N+]([O−])═O)cc12)-c4ccnc(N)n4]	–	–
< 5	< 5	Cc1c(-c2ccnc(N)n2)sc2ccc(CNC(=O)c3cccc([N+](=O)[O-])c3)cc12 [Example 180, Cc1c(sc2ccc(CNC(═O)c3cccc(c3)[N+]([O−])═O)cc12)-c4ccnc(N)n4]	–	–
< 5	< 5	COc1cccc(O)c1C(=O)NCc1ccc2sc(-c3ccnc(N)n3)c(C)c2c1 [Example 181, COc1cccc(O)c1C(═O)NCc2ccc3sc(c(C)c3c2)-c4ccnc(N)n4]	–	–
> 5	< 5	COc1ccc(O)c(C(=O)NCc2ccc3sc(-c4ccnc(N)n4)c(C)c3c2)c1 [Example 182, COc1ccc(O)c(c1)C(═O)NCc2ccc3sc(c(C)c3c2)-c4ccnc(N)n4]	–	–
> 5	< 5	COc1ccc(C(=O)NCc2ccc3sc(-c4ccnc(N)n4)c(C)c3c2)c(O)c1 [Example 183, COc1ccc(C(═O)NCc2ccc3sc(c(C)c3c2)-c4ccnc(N)n4)c(O)c1]	–	–
> 5	< 5	Cc1c(-c2ccnc(N)n2)sc2ccc(CNC(=O)c3cc(O)c(O)c(O)c3)cc12 [Example 185, Cc1c(sc2ccc(CNC(═O)c3cc(O)c(O)c(O)c3)cc12)-c4ccnc(N)n4]	–	–
< 5	< 5	Cc1c(-c2ccnc(N)n2)sc2ccc(CNC(=O)Cc3ccc(O)c(F)c3)cc12 [Example 186, Cc1c(sc2ccc(CNC(═O)Cc3ccc(O)c(F)c3)cc12)-c4ccnc(N)n4]	–	–
< 5	< 5	Cc1cc(C(=O)NCc2ccc3sc(-c4ccnc(N)n4)c(C)c3c2)cc(Cl)n1 [Example 187, Cc1cc(cc(Cl)n1)C(═O)NCc2ccc3sc(c(C)c3c2)-c4ccnc(N)n4]	–	–
< 5	< 5	Cc1c(-c2ccnc(N)n2)sc2ccc(CNC(=O)Cc3c(F)cccc3F)cc12 [Example 188, Cc1c(sc2ccc(CNC(═O)Cc3c(F)cccc3F)cc12)-c4ccnc(N)n4]	–	–
< 5	< 5	Cc1c(-c2ccnc(N)n2)sc2ccc(CNC(=O)c3cccc4ccccc34)cc12 [Example 189, Cc1c(sc2ccc(CNC(═O)c3cccc4ccccc34)cc12)-c5ccnc(N)n5]	–	–

SMILES	IC50 [1, 3] [µM]	IC50 [2, 4] [µM]	IC50 [1, 5] [µM]	IC50 [2, 6] [µM]
CC(=O)c1ccc(C(=O)NCc2ccc3sc(-c4ccnc(N)n4)c(C)c3c2)cc1 [Example 162, CC(═O)c1ccc(Cc1)C(═O)NCc2ccc3sc(c(C)c3c2)-c4ccnc(N)n4]	> 5	< 5	–	–
Cc1c(-c2ccnc(N)n2)sc2ccc(CNC(=O)c3ccc(C(C)C)cc3)cc12 [Example 166, CC(C)c1ccc(cc1)C(═O)NCc2ccc3sc(c(C)c3c2)-c4ccnc(N)n4]	> 5	> 5	–	–
CCCc1ccc(C(=O)NCc2ccc3sc(-c4ccnc(N)n4)c(C)c3c2)cc1 [Example 171, CCCc1ccc(cc1)C(═O)NCc2ccc3sc(c(C)c3c2)-c4ccnc(N)n4]	> 5	> 5	–	–
